Assay results reported in US20080050413A1, “Medical stent provided with a combination of melatonin and paclitaxel” (priority 2006, published 2008).
Where “and” joins values, the source holds several entries; their conditions need not be identical. Equal values may be shown once.

What was measured:
[1] = tested on: human coronary artery smooth muscle cells (HCASMC); assay: CellTiter 96 One solution (MTS) cell proliferation assay, HCASMC; type: cell-based
Description: (§1) Human coronary artery endothelial cells (HCAEC) were purchased from Cambrex and human coronary artery smooth muscle cells (HCASMC) were purchased from Promocell. Cells were used for experiments between passage 4 and passage 12. Both cell types were cultured in their respective complete culture medium with the following composition: HCASMC: Smooth Muscle Cell Growth Medium 2: Epidermal Growth Factor (EGF), basic Fibroblast Factor (FGF), Insulin, Fetal Calf Serum (FCS) 5%, Amphotericin B, Gentamicin. Medium was changed every other day. 24 hours prior to growth factor stimulation, the medium was replaced by fresh culture medium, however, without growth factors to increase the cellular sensitivity to the subsequent growth factor stimulation. Subconfluent HCAEC were stimulated with 10 ng/ml of VEGF-A, whereas subconfluent HCASMC were stimulated with 10 ng/ml of PDGF-BB. Likewise, both cell types were stimulated with 25% of human serum (final concentration). All proliferation and cytotoxicity experiments were performed on cells cultured on 96 well plates (Costar). The CellTiter 96 One solution cell proliferation assay from Promega was used to assess cell proliferation in a 96-well plate. This assay makes use of the MTS tetrazolium compound as a cellular substrate. MTS is bioreduced by living cells into a colored formazan product that is soluble in tissue culture medium and absorbs light at 490 nm. The quantity of formazan produced is directly proportional to the number of living cells in culture. After 24 h stimulation, 20 μl of MTS reagent was added to the cells cultured in 100 μl of medium per well. After 2 to 4 hours of incubation at 37° C., 5% CO2, the absorbance at 490 nm was recorded using a 96-well plate reader (Tecan).

[2] = tested on: human coronary artery endothelial cells (HCAEC); assay: CellTiter 96 One solution (MTS) cell proliferation assay, HCAEC; type: cell-based
Description: as §1, with “HCAEC: Endothelial” for “HCASMC: Smooth Muscle Cell”, “Media-2 MV: hEGF, Hydrocortisone, GA-1000, FBS” for “Medium 2: Epidermal Growth Factor (EGF), basic Fibroblast Factor (FGF), Insulin, Fetal Calf Serum (FCS)”, “VEGF, hFGF-B, R3-IGF-1, Ascorbic Acid” for “Amphotericin B, Gentamicin.”

[3] = tested on: HUVEC (Human Umbilical Vein Endothelial Cells); assay: [3H]-thymidine incorporation, HUVEC stimulated with VEGF-A; type: cell-based; settings: VEGF A 10 ng/ml 24 hours
Description: To investigate, whether melatonin has similar effects on other cell types, HUVEC (Human Umbilical Vein Endothelial Cells, Promocell) were tested. HUVEC were cultured in the corresponding complete medium (Endothelial Cell Growth Medium: ECGS/H 0.4%, Fetal Calf Serum 2%, Epidermal Growth Factor 0.1 ng/ml, Hydrocortisone 1 μg/ml, basic Fibroblast Factor 1 ng/ml, Amphotericin B 50 ng/ml, Gentamicin 50 μg/ml). 24 hours prior to stimulation, the medium was replaced by a medium containing 2% serum and antibiotics, but devoid of the other complements. Then, HUVEC were stimulated with 10 ng/ml of VEGF-A for 24 hours. HUVEC were incubated for 48 hours with Melatonin and stimulated for 24 hours with VEGF-A at 10 ng/ml. After 24 hours of stimulation, the cells were incubated with radioactive [^3H]-thymidine. Two hour later, the medium was removed and cell-bound DNA was precipitated using 5% TCA (Trichloroacetic acid). Then, [^3H]-thymidine incorporation was measured using a beta-counter.

HCAEC [4] = assay: CytoTox-ONE LDH release cytotoxicity assay, HCAEC; type: cell-based, human; settings: 48 hours, Melatonin 0.2 to 6 mM
Description: (§2) Cytotoxicity experiments were performed with cells cultured on 96-well plates. The CytoTox-ONE™ Assay from Promega was used to assess the membrane integrity of cells. This test is based on a fluorometric method to estimate the number of non viable cells present in multiwell plates by measuring the release of lactate dehydrogenase (LDH) from cells with damaged membranes. Subconfluent cells were incubated for 48 hours with Melatonin at concentrations between 0.2 and 6 mM. During the 48 h Melatonin incubation, the medium was not changed to avoid removal of any detached cells. As a positive control three wells of untreated cells were incubated with lysis buffer (delivered with the assay) before measurement. At the end of the Melatonin incubation period, a volume of CytoTox-ONE reagent equal to the volume of cell culture medium present in each well was added. After 10 min incubation at 22° C. (room temperature), 50 μl of stop solution was added per 100 μl of CytoTox-ONE reagent added. The plate was shaken for 10 seconds and fluorescence was recorded with an excitation wavelength of 560 nm and an emission wavelength of 590 nm (Spectramax M2 fluorescence plate reader, Molecular devices).

HCAEC [5] = assay: Chemotaxis towards VEGF-A, modified Boyden chamber, HCAEC; type: cell-based, human; settings: 2 mM Melatonin for 48 hours; VEGF-A 10 ng/ml; migration 4 hours; performed only once
Description: Chemotaxis experiments were performed using a modified Boyden chamber. The apparatus consists of two multi-well chambers separated by a filter containing pores of uniform size. A solution containing a chemokine or chemotactic factor is placed in the lower/bottom chamber and a cell suspension is placed in the upper chamber. Cells can migrate through the pores across the filter and towards the chemoattractant in the lower chamber. Cells that migrated across the filter and remain attached to the lower side of the membrane are counted. Data are expressed in terms of migration index: the number of cells that migrated in response to agonist stimulation compared to the number of cells that migrated randomly, i.e. to medium only. Chemotaxis experiments so far were only performed with HCAEC. For these cells a 25×80 mm polycarbonate filter, […] (PVP) free was used (Whatman) with a pore size of […]. Before migration the filter was coated with collagen. Endothelial cells were incubated with Melatonin at 2 mM prior to and during migration. […] Cells were stimulated with VEGF-A at 10 ng/ml. Cells were allowed to migrate for 4 hours at 37° C./5% CO2. At the end of migration, cells were fixed on the filter, stained with Giemsa and counted using a regular optic microscope.

HCASMC = assay: CytoTox-ONE LDH release cytotoxicity assay, HCASMC; type: cell-based, human; settings: 48 hours, Melatonin 0.2 to 6 mM
Description: as §2

COc1ccc2[nH]cc(CCNC(C)=O)c2c1 [Melatonin, N-acetyl-5-methoxytryptamine]
effect on number of smooth muscle cells ([1]; 1 mM Melatonin, 24 hours pre-treatment, PDGF BB 10 ng/ml 24 h): significant decrease in the number of smooth muscle cells | concentration at which proliferation is strongly inhibited ([1]; HCASMC): higher than 0.2 mM | effect on proliferation of HCASMC ([1]; Melatonin up to 0.1 mM, PDGF BB 10 ng/ml 24 h): no significant effect | concentration of maximal inhibitory effect ([1]; tested up to 10 mM): 5 mM | concentration at which proliferation is strongly inhibited ([2]; HCAEC): higher than 0.2 mM | effect on cell number ([2]; Melatonin between 1 mM and 6 mM): dramatic decrease in cell number | concentration of maximal effect ([2]; tested 1 μM to 6 mM): 3 mM and 6 mM | sensitivity of HCAEC to Melatonin ([2]; up to 0.1 mM Melatonin): not sensitive | effect on HUVEC ([3H]-thymidine incorporation) ([3]; 0.2 mM Melatonin, 48 hours): inhibitory effect | VEGF-A induced [3H]-thymidine incorporation ([3]; Melatonin 48 hours): completely inhibited | cytotoxic effect (LDH release) (HCAEC [4]): does not induce any detectable cytotoxic effect | effect on chemotactic response towards VEGF-A (HCAEC [5]): did not have any significant effect | cytotoxic effect (LDH release) (HCASMC): does not induce any detectable cytotoxic effect
